{"source": "patent US20250387348A1", "about": "“NEPHROPROTECTIVE USEFUL AGENT” (WATANABE OYSTER LABORATORY, CO., LTD., priority 2022, published 2025)", "key": {"Keap1-Nrf2 pathway": {"test_system": "Keap1-Nrf2 pathway", "settings": "cited from earlier work"}, "[1]": {"test_system": "human renal proximal tubular cells HK-2", "test": "LDH cytotoxicity test under BSO oxidative stress", "format": "cell-based", "settings": "48 hours", "experimental": "(§1) Human renal proximal tubular cells (HK-2) were subcultured using Dulbecco's Modified Eagle's Medium (DMEM, NACALAI TESQUE, INC.) containing 10% fetal bovine serum and 1% penicillin-streptmycin in a 5% CO2 incubator at 37° C.\n(§2) In order to confirm the cytoprotective action of DHMBA on human renal proximal tubular cells HK-2 against oxidative stress, an oxidative stress inducer buthionine sulfoximine (BSO) was used to assess the toxicity and viability of the cells.\n(§3) Specifically, the HK-2 cells were seeded into a 96-well plate to be 3.0×10^3 cells/well and cultured for 24 hours.\n(§4) Next, BSO and DHMBA were added in an amount of 150 μL/well to have a final concentration of BSO of 100 μM and a final concentration of DHMBA of 1 μM to 500 μM. […] After the plate was allowed to stand for 30 minutes at room temperature, the absorbance at 490 nm was measured using a plate reader (Wallac 1420 ARVO Mx plate reader, PerkinElmer) to measure the cytotoxicity. In addition, a CCK-8 reagent (DOJINDO LABORATORIES) was added in an amount of 10 μL/well to the plate where the cells had been cultured, and after two hours of culture at 37° C., the absorbance at 450 nm was measured using a plate reader (Wallac 1420 ARVO Mx plate reader) to assess the viability of the cells. The toxicity and viability of the cells were calculated from the absorbance value relative to the control (0 μg/mL) (n=5 to 6 for each group)."}, "[2]": {"test_system": "BIK and ENDOG genes in HK-2 cells", "test": "qPCR expression of cell and mitochondrial damage-related genes", "format": "cell-based, human", "settings": "24 hours", "description": "Under oxidative stress stimulation, ENDOG that resides in a mitochondrion migrates to the nucleus and acts on nuclear DNA fragmentation. In addition, when nuclear DNA is damaged, BIK increases and acts with intramitochondrial factors, inducing apoptosis, a type of cell death (Li L Y, et al., Nature, 412:95-99, 2001; Kutuk O, et al., PLOS One, 12: e0182809, 2017).\nTherefore, in the present invention, the effect of DHMBA on cell death markers BIK and ENDOG, which increase under oxidative stress stimulation, was verified.\nThe HK-2 cells were seeded into a 6-well plate to be 5.0×10^4 cells/well and cultured for 24 hours. Next, BSO and DHMBA were added in an amount of 2 mL/well to have a final concentration of BSO of 100 μM and a final concentration of DHMBA of 250 μM and 500 μM. After 24 hours, total RNA extraction was recovered using a NucleoSpin (registered trademark) RNA kit (MACHEREY-NAGEL). The concentration of purified RNA was quantified by the Nanodrop (Invitrogen). From 1.0 μg of total RNA, cDNA was synthesized according to the protocol of ReverTra ACE (registered trademark) qPCR RT Master Mix with gDNA Remover (TOYOBO). The gene expression levels were measured according to the protocol of THUNDERBIRD (registered trademark) SYBR (registered trademark) qPCR Mix (TOYOBO). The measurement was performed using the CFX Connect™ Real-Time PCR Detection System (BioRad), and analysis was performed by the 2^−(ΔΔCT) method.\nA comparison was performed with the gene expression level of the control group as 1. The figure was expressed as a mean value±SD (n=4 for each group). Each expression level was corrected by the expression level of β-actin, which is a housekeeping gene."}, "[3]": {"test_system": "intracellular ROS in HK-2 cells", "test": "Intracellular ROS production level (DCFDA staining)", "format": "cell-based, human", "settings": "24 hours", "experimental": "The production level of intracellular ROS was measured to assess changes in intracellular ROS by DHMBA under oxidative stress stimulation.\nThe HK-2 cells were seeded into a black 96-well plate to be 3.0×10^3 cells/well and cultured for 24 hours. Next, BSO and DHMBA were added in an amount of 100 μL/well to have a final concentration of BSO of 100 μM and a final concentration of DHMBA of 250 μM and 500 μM. After 24 hours, a supernatant was removed, a DCFDA reagent (Sigma) diluted to 25 μM with serum-free DMEM was added in an amount of 100 μL/well, and the cells were cultured at 37° C. for 40 minutes. Furthermore, after the cells were washed with PBS, PBS was added in an amount of 100 μL/well, and fluorescence was measured using a plate reader (Wallac 1420 ARVO Mx plate reader) at an excitation wavelength of 485 nm and a fluorescence wavelength of 535 nm (n=6 for each group) and observed and photographed with a fluorescence microscope BZ-9000 (Keyence)."}, "[4]": {"test_system": "mitochondria of HK-2 cells", "test": "Mitochondrial morphology observation (MitoTracker Green FM / Hoechst 33342)", "format": "cell-based, human", "settings": "24 hours", "experimental": "Excessively produced ROS induces mitochondrial fission, causing mitochondrial fragmentation and dysfunction (Zorov D, et al., Cells, 8:175, 2019). In order to observe whether or not DHMBA influences mitochondrial morphological changes under oxidative stress stimulation, double staining of mitochondria and nuclei was performed using MitoTracker (registered trademark) Green FM (Thermo Fisher Scientific), which reacts to mitochondrial membrane potential differences, and Hoechst 33342 (DOJINDO LABORATORIES), which binds to nuclear DNA.\nThe HK-2 cells were seeded into 35 mm dishes to be 5.0×10^4 cells/dish and cultured for 24 hours. Next, BSO and DHMBA were added in an amount of 2 mL/well to have a final concentration of BSO of 100 μM and a final concentration of DHMBA of 250 μM and 500 μM. After 24 hours, a mixed solution of 0.1 μM MitoTracker (registered trademark) Green FM and 5 μg/mL Hoechst 33342 was added in an amount of 2 mL/dish, and the cells were cultured at 37° C. for 20 minutes and washed with PBS. Afterwards, 1 mL of PBS was added, and fluorescence images were obtained at 100 times using a fluorescence microscope BZ-9000 (Keyence)."}, "[5]": {"test_system": "mitochondria of HK-2 cells", "test": "Mitochondrial respiration capacity (oxygen consumption rate, extracellular flux analyzer XFp)", "format": "cell-based, human", "experimental": "The action of DHMBA improving mitochondrial respiration capacity under oxidative stress was examined using an extracellular flux analyzer XFp (Agilent Technologies).\nThe HK-2 cells were seeded into the XFp Cell Culture Miniplate (Agilent Technologies) to be 1.5×10^4 cells/well and cultured for 24 hours. Next, BSO and DHMBA were added in an amount of 200 μL/well to have a final concentration of BSO of 100 μM and a final concentration of DHMBA of 250 μM and 500 μM. After 24 hours of culture, the culture medium was replaced with a running culture medium (XF DMEM Medium, pH 7.4, Agilent Technologies) containing 20 mM GlutaMAX (Gibco), 10 mM Pyruvate (Gibco), and glucose (10 mM), and the cells were cultured for one hour in an incubator at 37° C. without CO2 control. A 24-hour hydrated calibration plate was placed on an extracellular flux analyzer XFp and calibrated. After the calibration was completed, the calibration plate and the cell plate were exchanged, and the oxygen consumption rate (OCR) was measured. The basal respiration rate was measured first, and subsequently, oligomycin (final concentration: 2 μM) was added to inhibit ATP production. Next, FCCP (final concentration: 1 μM) was added, and the maximal respiration rate was measured. Finally, rotenon/antimycin A (final concentration: 0.25 μM) was added, and the respiration rate independent of mitochondria was measured. Each measurement was performed three times for all measurements."}, "[6]": {"test_system": "PPARα/PGC1α/NRF1/TFAM pathway genes in HK-2 cells", "test": "qPCR expression of mitochondrial biosynthesis-related genes", "format": "cell-based, human", "settings": "co-treatment with 100 μM BSO, DHMBA 250 μM and 500 μM", "experimental": "It has been reported that mitochondrial biosynthesis is regulated through activation of the PPARα/PGC1α/NRF1/TFAM pathway (Uittenbogaard M and Chiaramello A, Current pharmaceutical design, 20:[…], 2014).\n(§5) The expression levels of genes related to mitochondrial biosynthesis were measured in a similar manner to that described above. A comparison was performed with the control group as 1. The figure was expressed as a mean value±SD (n=3 for each group). Each expression level was corrected by the expression level of β-actin."}, "[7]": {"test_system": "human renal proximal tubular cells HK-2", "test": "CCK-8 cell viability test under BSO oxidative stress", "format": "cell-based", "settings": "48 hours", "experimental": "as §1, §2, §3, §4"}, "[8]": {"test_system": "OPA1, DRP1 and FIS1 genes in HK-2 cells", "test": "qPCR expression of mitochondrial fusion- and fission-related genes", "format": "cell-based, human", "settings": "co-treatment with 100 μM BSO, DHMBA 250 μM and 500 μM", "experimental": "as §5, with “fusion (OPA1) and genes related to fission (DRP1 and FIS1)” for “biosynthesis”, “(n=4” for “(n=3”"}, "[9]": {"test_system": "intramitochondrial ROS in HK-2 cells", "test": "Intramitochondrial ROS production level (DHR123 staining)", "format": "cell-based, human", "settings": "24 hours", "experimental": "In order to verify the effect of DHMBA on the production of intramitochondrial ROS promoted by oxidative stress stimulation, the observation and measurement of fluorescence intensity of intramitochondrial ROS were performed using DHR123.\nThe HK-2 cells were seeded into a black 24-well plate to be 2.0×10^4 cells/well and cultured for 24 hours. Next, BSO and DHMBA were added in an amount of 500 μL/well to have a final concentration of BSO of 100 μM and a final concentration of DHMBA of 250 μM and 500 μM. After 24 hours, a supernatant was removed, a DHR123 reagent (FUJIFILM Wako Pure Chemical Corporation) diluted to 5 μM with serum-free DMEM was added in an amount of 250 μL/well, and the cells were cultured at 37° C. for 40 minutes.\nFurthermore, after the cells were washed with PBS, 500 μL of PBS was added, observation was performed, and photos were taken using a fluorescence microscope BZ-9000 (Keyence). Then, after the cells were peeled from the bottom with a scraper and pipetted sufficiently, an amount of 200 μL/well was moved to a black 96-well plate, and fluorescence was measured using a plate reader (Wallac 1420 ARVO Mx plate reader) at an excitation wavelength of 505 nm and a fluorescence wavelength of 534 nm (n=6 for each group)."}, "[10]": {"settings": "co-treatment with 100 μM BSO, DHMBA 250 μM and 500 μM"}, "[11]": {"settings": "100 μM BSO and 500 μM DHMBA, 24 hours, OCR"}, "[12]": {"settings": "100 μM BSO alone (oxidative stress stimulation)"}}}
{"smiles": "COc1c(O)cc(CO)cc1O", "note": "[DHMBA, 3,5-dihydroxy-4-methoxybenzyl alcohol]", "values": [{"measurement": "cytotoxicity compared with existing antioxidant substances", "setting": "Keap1-Nrf2 pathway; earlier finding, background art", "result": "less cytotoxic than existing antioxidant substances"}, {"measurement": "activation of radical scavenging ability and the Keap1-Nrf2 pathway, expression induction of antioxidant gene clusters (such as HO-1 and NQO1)", "setting": "Keap1-Nrf2 pathway; literature (Fuda 2015; Joko 2017)", "result": "confirmed"}, {"measurement": "DHMBA concentration that inhibited cytotoxicity", "setting": "[1]; co-treatment with 100 μM BSO, DHMBA 1 μM to 500 μM", "result": "≥ 3.9", "unit": "µM"}, {"measurement": "expression level of BIK gene", "setting": "[2]; [10]", "result": "decreased to the same levels as those of the control group"}, {"measurement": "expression level of ENDOG gene", "setting": "[2]; [10]", "result": "decreased to the same levels as those of the control group"}, {"measurement": "production level of intracellular ROS", "setting": "[3]; [10]", "result": "decreased to the same level as that of the control group"}, {"measurement": "mitochondrial fragmentation (morphology)", "setting": "[4]; [10]", "result": "fragmented mitochondria decreased"}, {"measurement": "mitochondrial ATP production", "setting": "[5]; [11]", "result": "increased"}, {"measurement": "mitochondrial basal respiration", "setting": "[5]; [11]", "result": "increased"}, {"measurement": "mitochondrial maximal respiration", "setting": "[5]; [11]", "result": "increased"}, {"measurement": "expression level of PGC1α", "setting": "[6]", "result": "increased"}, {"measurement": "expression level of TEAM", "setting": "[6]", "result": "increased"}, {"measurement": "DHMBA concentration that increased cell viability", "setting": "[7]; co-treatment with 100 μM BSO, CCK-8, DHMBA 1 μM to 500 μM", "result": "≥ 3.9", "unit": "µM"}, {"measurement": "expression level of FIS1", "setting": "[8]", "result": "reduced"}, {"measurement": "accumulation of intramitochondrial ROS", "setting": "[9]; [10]", "result": "inhibited"}]}
{"smiles": "CCCCS(=N)(=O)CCC(N)C(=O)O", "note": "(centres unmarked) [BSO, buthionine sulfoximine, reference compound]", "values": [{"measurement": "cytotoxicity", "setting": "[1]; 100 μM BSO alone (0 μM DHMBA)", "result": "strong cytotoxicity"}, {"measurement": "expression level of BIK gene", "setting": "[2]; [12]", "result": "increased"}, {"measurement": "expression level of ENDOG gene", "setting": "[2]; [12]", "result": "increased"}, {"measurement": "intracellular ROS", "setting": "[3]; 100 μM BSO alone", "result": "increase in intracellular ROS"}, {"measurement": "mitochondrial fragmentation (morphology)", "setting": "[4]; [12]", "result": "mitochondrial fragmentation was induced"}, {"measurement": "damage to mitochondrial functions (OCR)", "setting": "[5]; 100 μM BSO alone, 24-hour addition", "result": "not recognized"}, {"measurement": "cell viability", "setting": "[7]; 100 μM BSO alone (0 μM DHMBA), CCK-8", "result": "low cell viability"}, {"measurement": "ROS accumulation in mitochondria", "setting": "[9]; 100 μM BSO alone", "result": "ROS accumulation in mitochondria was also observed"}]}
